From patent US20090208550A1, “Methods and compositions for treating hepatic diseases” (priority 2007, published 2009)

How the values were obtained:
[1] = system: AML-12 mouse hepatocyte cell line; experiment: Oil Red O staining, lipid content of AML-12 hepatocytes (Example 1); type: cell-based; details: AML-12 cells, 24 hours
[2] = system: fatty acid synthase (FAS) mRNA; experiment: Real-time PCR of FAS mRNA in cultured AML-12 hepatocytes; type: cell-based, mouse; details: AML-12 cells, 24 hours; for mRNA for FAS: 10^-6M, control 100.0%, n=3
Method: (§1) Total RNA was isolated from cultured hepatocytes using Trizol reagent (Invitrogen, USA) and RNA extracted according to the manufacturer's instructions, then dissolved in sterile DEPC water and stored at −80° C. 1 μg RNA of sample RNA was transcribed to cDNA with the GeneAmp RNA Core Kit (Applied Biosystems, Branchburg, N.J.). Primer sequences ATP citrate lyase (ACL): forward 5′-GAAGCTGACCTTGCTGAACC-3′, reverse 5′-CTGCCTCCAATGATGAGGAT-3′; fatty acid synthase (FAS): forward 5′-TGGGTTCTAGCCAGCAGAGT-3′, reverse: 5′-ACCACCAGAGACCGTTATGC-3′. PCR was performed with the SYBR Green PCR Kit (Applied Biosystems, Foster City, Calif.) following the manufacturer's instructions and carried out on the Mx3005P™ Q-PCR system (Stratagene, La Jolla, Calif.) in 50 μl volume. The number of copies for each amplicon was calculated by Mx3005P software, normalized to GAPDH and expressed as a dimensionless ratio.

AML-12 hepatocytic cells = experiment: Fat accumulation in AML-12 cells: Oil Red O staining and cellular triglyceride (Example 7); details: twenty-four hours; for intracellular triglyceride levels / lipid accumulation by Oil Red O staining / blockade of the effect of NECA on hepatocyte triglyceride accumulation: NECA 10 mM; for blockade of the effect of NECA on hepatocyte triglyceride accumulation: MRS1706 1 mM
Method: Hepatocyte cell culture, triglyceride measurement and oil red O staining of hepatocytes. […] AML-12 Cells were grown in 1:1 mixture of DMEM-Ham's F-12 medium supplemented with 0.005 mg/ml insulin, 0.005 mg/ml transferrin, 5 ng/ml selenium, 40 ng/ml dexamethasone, 10% fetal bovine serum and antibiotics. Upon reaching 70-80% confluence the cells were treated for 6 hours in serum-free DMEM-Ham's F-12 medium and then treated with different adenosine receptor agonists, antagonists or vehicle (DSMO, 1.28×10^−5M), respectively. The method of the triglyceride measurement of hepatocytes is the same as the liver tissue. The cells were fixed with 10% neutral formalin, and Oil Red O staining as described above.

[3] = system: ATP citrate lyase (ACL) mRNA; experiment: Real-time PCR of ACL mRNA in cultured AML-12 hepatocytes; type: cell-based, mouse; details: AML-12 cells, 24 hours; for mRNA for ACL: 10^-6M, control 100.0%, n=3
Method: as §1

[4] = system: ethanol-induced fatty liver in C57Bl/6 mice; experiment: Ethanol-induced fatty liver in mice treated with adenosine receptor antagonists (Example 5); type: in vivo, mouse; details: ethanol diet 6 weeks, 50 mg/Kg/Day, versus ethanol-treated wild type mice
From the text: Mouse models of fatty livers and treatment. Mice were fed an ethanol-containing liquid Lieber-De-Carli diet (ethanol provides 350 Kcal/L) or a calorie equivalent diet supplemented with maltose (BioServ Inc., Frenchtown, N.J.) for 6 weeks. […] In first week, animals were gradually introduced to the ethanol diet following the manufacturer's instructions. Mice were sacrificed by CO2 narcosis at the end of the experiment and their livers were collected. Two wild type mice and one CD73 knockout mouse on an ethanol-containing diet died, and none of the antagonist-treated or other knockout mice died during the course of these experiments.
Hematoxylin-Eosin (H&E) and Oil Red O staining of liver sections. Livers were fixed with 10% neutral formalin, embedded in paraffin and stained with H&E for histological examination. Liver steatosis was graded as previously described (Hong et al., Hepatology (2004) 40:933-941) based on the semiquantitative estimation of the percentage of lipid-laden hepatocytes in the liver according to the following criteria: grade 0: no hepatocytes involved; grade 1: 1% to 25% of hepatocytes involved; grade 2: 26% to 50% of hepatocytes involved; grade 3: 51% to 75% of hepatocytes involved; and grade 4: 76% to 100% of hepatocytes involved. At least five random different high power fields (hpf) of each cross-section (400× magnification) were graded in a blinded way. […]
Measurements of serum AST and triglyceride. […] AST and triglyceride were measured by standard techniques in the Clinical Laboratory of Bellevue Hospital. […]
Materials and Methods. […] The liver and body of the mice were weighed on the day of sacrifice and the liver/total body weight ratio calculated. The serum AST and triglyceride and hepatic tissue triglyceride levels were also measured, as described in Example 3, supra. […]

[5] = system: ACL, FAS, ACCα, CPTI, PPARα, PPARγ and SREBP1 mRNA in mouse liver tissue; experiment: Real-time PCR of hepatic mRNA expression in ethanol-fed mice (Example 6); type: in vivo; details: chronic ethanol ingestion, 50 mg/Kg/Day, n=5
Method: Real-time PCR quantitation of mRNA. Total RNA was isolated from liver tissue using Trizol reagent (Invitrogen, USA) and RNA extracted according to the manufacturer's instructions, then dissolved in sterile DEPC water and stored at −80° C. 1 μg of sample RNA was transcribed to cDNA with the GeneAmp RNA Core Kit (Applied Biosystems, Branchburg, N.J.). […] The number of copies for each amplicon was calculated by Mx3005P software, normalized to GAPDH and expressed as a dimensionless ratio.
Materials and methods. mRNA expression of genes in hepatic tissue was assessed by Real-time PCR and normalized to GAPDH. […] The number of copies for each amplicon was calculated by Mx3005P software, normalized to GAPDH and expressed as a dimensionless ratio.

| Compound | mRNA for FAS [2] | intracellular triglyceride levels (AML-12 hepatocytic cells; CPA 1 mM) | lipid accumulation by Oil Red O staining (AML-12 hepatocytic cells; CPA 1 mM) | mRNA for ACL [3] | serum AST levels [4] | blockade of the effect of NECA on hepatocyte triglyceride accumulation (AML-12 hepatocytic cells; DPCPX 1mM) | also measured |
| --- | --- | --- | --- | --- | --- | --- | --- |
| OC[C@H]1O[C@@H](n2cnc3c(NC4CCCC4)ncnc32)[C@H](O)[C@@H]1O [CPA, N6-cyclopentyladenosine] | 164.2±6.8% | increased | accumulated lipid | 181.4±12.9% |  |  | lipid content of hepatocytes ([1]; CPA 10^-6M, Oil Red O): significantly increased |
| CCCn1c(=O)c2[nH]c(C3CCCC3)nc2n(CCC)c1=O [DPCPX, 1,3 dipropyl-8-cyclopentylxantine] | 105.8±5.3% |  |  | 92.0±5.2% | significantly lower | partly blocked | blockade of the effect of CPA on lipid content of hepatocytes ([1]; CPA 10^-6M + DPCPX 10^-6M): nearly completely blocked; ethanol-induced change of mRNA expression of ACCα, CPT1 and PPARα in liver [5]: reduced; ethanol-induced mRNA expression of ACL, FAS, PPARγ and SREBP1 in liver [5]: prevented the ethanol-induced increase in expression; blockade of the CPA-induced increase of mRNA for FAS [2]: completely blocked; blockade of the effect of CPA on hepatocyte triglyceride accumulation (AML-12 hepatocytic cells; CPA 1 mM, DPCPX 1mM): almost completely abrogated; blockade of the CPA-induced increase of mRNA for ACL [3]: completely blocked |
| CCCn1c(=O)c2[nH]c(-c3ccc(OCC(=O)Nc4ccc(C(C)=O)cc4)cc3)nc2n(CCC)c1=O [MRS1706, N-(4-aceptylphenyl)-2-[4-(2,3,6,7-tetrahydro-2,6-dioxo-1,3-dipropyl-1H-purine-8-yl)phenoxy]acetamide] |  |  |  |  |  | almost completely abrogated |  |
| CCNC(=O)[C@H]1O[C@@H](n2cnc3c(N)ncnc32)[C@H](O)[C@@H]1O [NECA, 5′-N-ethylcarboxamidoadenosine] |  | increased | accumulated lipid |  |  |  |  |
| CCCn1c(=O)[nH]c(=O)c2[nH]cnc21 [enprofylline, 3-propylxanthine] |  |  |  |  | significantly lower |  | serum triglyceride levels [4]: significant reduction |
